Assay results reported in PMC5114172 (Journal of applied toxicology : JAT, 2016).

System: MD-PBMCs
Test: IL-1β secretion
Type: cell-based, human

CCC[CH2][Sn][CH2]CCC [DBT, Dibutyltin]
fold increase in IL-1β secretion (donor F240, 24 h, 0.05 μM DBT, absence of MEK inhibitor): 1.6 fold
Interleukin 1 beta secreted (donor F240, 24 h, 0.05 μM DBT, no inhibitor (CI experiment)): 757 ± 17 pg/mL
Interleukin 1 beta secreted (donor F240, 24 h, 0.05 μM DBT, no inhibitor (U0126 experiment)): 772 ± 54 pg/mL
Interleukin 1 beta secreted (donor F240, 24 h, 0.1 μM DBT + Caspase-1 inhibitor II 50 μM): 467 ± 12 pg/mL
Interleukin 1 beta secreted (donor F240, 24 h, 0.1 μM DBT + U0126 50 μM): 1447 ± 142 pg/mL
fold increase in IL-1β secretion (donor F240, 24 h, 0.1 μM DBT, absence of MEK inhibitor): 1.6 fold
Interleukin 1 beta secreted (donor F240, 24 h, 0.1 μM DBT, no inhibitor (CI experiment)): 916 ± 67 pg/mL
Interleukin 1 beta secreted (donor F240, 24 h, 0.1 μM DBT, no inhibitor (U0126 experiment)): 812 ± 109 pg/mL
fold increase in IL-1β secretion (donor F240, 24 h, 0.05 and 0.1 μM DBT, U0126 50 μM present): no DBT-induced increases
Interleukin 1 beta secreted (donor F242, 24 h, 0.05 μM DBT + Caspase-1 inhibitor II 50 μM): 495 ± 25 pg/mL
Interleukin 1 beta secreted (donor F242, 24 h, 0.05 μM DBT + U0126 50 μM): 759 ± 10 pg/mL
Interleukin 1 beta secreted (donor F242, 24 h, 0.05 μM DBT, no inhibitor (CI experiment)): 2752 ± 49 pg/mL
Interleukin 1 beta secreted (donor F242, 24 h, 0.05 μM DBT, no inhibitor (U0126 experiment)): 2230 ± 89 pg/mL
Interleukin 1 beta secreted (donor F242, 24 h, 0.1 μM DBT + Caspase-1 inhibitor II 50 μM): 354 ± 43 pg/mL
Interleukin 1 beta secreted (donor F242, 24 h, 0.1 μM DBT + U0126 50 μM): 312 ± 27 pg/mL
Interleukin 1 beta secreted (donor F242, 24 h, 0.1 μM DBT, no inhibitor (CI experiment)): 2874 ± 77 pg/mL
Interleukin 1 beta secreted (donor F242, 24 h, 0.1 μM DBT, no inhibitor (U0126 experiment)): 2172 ± 25 pg/mL
Interleukin 1 beta secreted (donor F244, 24 h, 0.05 μM DBT + BAY 11-7085): 1107 ± 14 pg/mL
Interleukin 1 beta secreted (donor F244, 24 h, 0.05 μM DBT + Caspase-1 inhibitor II 50 μM): 334 ± 11 pg/mL
Interleukin 1 beta secreted (donor F244, 24 h, 0.05 μM DBT + U0126 50 μM): 61 ± 23 pg/mL
fold increase in IL-1β secretion (donor F244, 24 h, 0.05 μM DBT, BAY 11-7085 present): 1.3 fold
fold increase in IL-1β secretion (donor F244, 24 h, 0.05 μM DBT, absence of NFκB inhibitor): 1.2 fold
Interleukin 1 beta secreted (donor F244, 24 h, 0.05 μM DBT, no inhibitor (BAY experiment)): 947 ± 29 pg/mL
Interleukin 1 beta secreted (donor F244, 24 h, 0.05 μM DBT, no inhibitor (CI experiment)): 1291 ± 34 pg/mL
Interleukin 1 beta secreted (donor F244, 24 h, 0.05 μM DBT, no inhibitor (U0126 experiment)): 1764 ± 62 pg/mL
Interleukin 1 beta secreted (donor F244, 24 h, 0.1 μM DBT + BAY 11-7085): 1067 ± 19 pg/mL
Interleukin 1 beta secreted (donor F244, 24 h, 0.1 μM DBT + Caspase-1 inhibitor II 50 μM): 302 ± 3 pg/mL
Interleukin 1 beta secreted (donor F244, 24 h, 0.1 μM DBT + U0126 50 μM): 143 ± 50 pg/mL
fold increase in IL-1β secretion (donor F244, 24 h, 0.1 μM DBT, BAY 11-7085 present): 1.3 fold
fold increase in IL-1β secretion (donor F244, 24 h, 0.1 μM DBT, absence of NFκB inhibitor): 1.3 fold
Interleukin 1 beta secreted (donor F244, 24 h, 0.1 μM DBT, no inhibitor (BAY experiment)): 1029 ± 59 pg/mL
Interleukin 1 beta secreted (donor F244, 24 h, 0.1 μM DBT, no inhibitor (CI experiment)): 1444 ± 43 pg/mL
Interleukin 1 beta secreted (donor F244, 24 h, 0.1 μM DBT, no inhibitor (U0126 experiment)): 2001 ± 184 pg/mL
Interleukin 1 beta secreted (donor F245, 24 h, 0.05 μM DBT + BAY 11-7085): 630 ± 60 pg/mL
Interleukin 1 beta secreted (donor F245, 24 h, 0.05 μM DBT + Caspase-1 inhibitor II 50 μM): 216 ± 19 pg/mL
Interleukin 1 beta secreted (donor F245, 24 h, 0.05 μM DBT + U0126 50 μM): 277 ± 8 pg/mL
fold increase in IL-1β secretion (donor F245, 24 h, 0.05 μM DBT, Caspase-1 inhibitor II 50 μM present): 1.4 fold
fold increase in IL-1β secretion (donor F245, 24 h, 0.05 μM DBT, absence of Caspase-1 inhibitor): 1.8 fold
Interleukin 1 beta secreted (donor F245, 24 h, 0.05 μM DBT, no inhibitor (BAY experiment)): 883 ± 66 pg/mL
Interleukin 1 beta secreted (donor F245, 24 h, 0.05 μM DBT, no inhibitor (CI experiment)): 1399 ± 20 pg/mL
Interleukin 1 beta secreted (donor F245, 24 h, 0.05 μM DBT, no inhibitor (U0126 experiment)): 1174 ± 49 pg/mL
Interleukin 1 beta secreted (donor F245, 24 h, 0.1 μM DBT + BAY 11-7085): 514 ± 80 pg/mL
Interleukin 1 beta secreted (donor F245, 24 h, 0.1 μM DBT + Caspase-1 inhibitor II 50 μM): 163 ± 10 pg/mL
Interleukin 1 beta secreted (donor F245, 24 h, 0.1 μM DBT + U0126 50 μM): 231 ± 14 pg/mL
fold increase in IL-1β secretion (donor F245, 24 h, 0.1 μM DBT, Caspase-1 inhibitor II 50 μM present): no increase
fold increase in IL-1β secretion (donor F245, 24 h, 0.1 μM DBT, absence of Caspase-1 inhibitor): 1.8 fold
Interleukin 1 beta secreted (donor F245, 24 h, 0.1 μM DBT, no inhibitor (BAY experiment)): 1206 ± 91 pg/mL
Interleukin 1 beta secreted (donor F245, 24 h, 0.1 μM DBT, no inhibitor (CI experiment)): 1375 ± 18 pg/mL
Interleukin 1 beta secreted (donor F245, 24 h, 0.1 μM DBT, no inhibitor (U0126 experiment)): 1246 ± 65 pg/mL
Interleukin 1 beta secreted (donor F247, 24 h, 0.05 μM DBT + SB202190): 1495 ± 134 pg/mL
fold increase in IL-1β secretion (donor F247, 24 h, 0.05 μM DBT, absence of p38 inhibitor): 7.2 fold
Interleukin 1 beta secreted (donor F247, 24 h, 0.05 μM DBT, no inhibitor (SB202190 experiment)): 1378 ± 246 pg/mL
Interleukin 1 beta secreted (donor F247, 24 h, 0.1 μM DBT + SB202190): 1329 ± 99 pg/mL
fold increase in IL-1β secretion (donor F247, 24 h, 0.1 μM DBT, absence of p38 inhibitor): 2.5 fold
Interleukin 1 beta secreted (donor F247, 24 h, 0.1 μM DBT, no inhibitor (SB202190 experiment)): 477 ± 60 pg/mL
fold increase in IL-1β secretion (donor F247, 24 h, 0.05 and 0.1 μM DBT, SB202190 present): no increases
Interleukin 1 beta secreted (donor F254, 24 h, 0.05 μM DBT + Caspase-1 inhibitor II 50 μM): 41 ± 9 pg/mL
Interleukin 1 beta secreted (donor F254, 24 h, 0.05 μM DBT, no inhibitor (CI experiment)): 521 ± 62 pg/mL
Interleukin 1 beta secreted (donor F254, 24 h, 0.1 μM DBT + Caspase-1 inhibitor II 50 μM): 17 ± 16 pg/mL
Interleukin 1 beta secreted (donor F254, 24 h, 0.1 μM DBT, no inhibitor (CI experiment)): 206 ± 2 pg/mL
Interleukin 1 beta secreted (donor F262, 24 h, 0.05 μM DBT + SB202190): 146 ± 8 pg/mL
Interleukin 1 beta secreted (donor F262, 24 h, 0.05 μM DBT, no inhibitor (SB202190 experiment)): 1100 ± 58 pg/mL
Interleukin 1 beta secreted (donor F262, 24 h, 0.1 μM DBT + SB202190): 134 ± 183 pg/mL
Interleukin 1 beta secreted (donor F262, 24 h, 0.1 μM DBT, no inhibitor (SB202190 experiment)): 1021 ± 61 pg/mL
Interleukin 1 beta secreted (donor F333, 24 h, 0.05 μM DBT + BAY 11-7085): 2518 ± 60 pg/mL
Interleukin 1 beta secreted (donor F333, 24 h, 0.05 μM DBT, no inhibitor (BAY experiment)): 3995 ± 161 pg/mL
Interleukin 1 beta secreted (donor F333, 24 h, 0.1 μM DBT + BAY 11-7085): 1960 ± 102 pg/mL
Interleukin 1 beta secreted (donor F333, 24 h, 0.1 μM DBT, no inhibitor (BAY experiment)): 2755 ± 84 pg/mL
Interleukin 1 beta secreted (donor F334, 24 h, 0.05 μM DBT + BAY 11-7085): 1035 ± 19 pg/mL
Interleukin 1 beta secreted (donor F334, 24 h, 0.05 μM DBT, no inhibitor (BAY experiment)): 2281 ± 53 pg/mL
Interleukin 1 beta secreted (donor F334, 24 h, 0.1 μM DBT + BAY 11-7085): 702 ± 82 pg/mL
Interleukin 1 beta secreted (donor F334, 24 h, 0.1 μM DBT, no inhibitor (BAY experiment)): 1468 ± 94 pg/mL
Interleukin 1 beta secreted (donor F372, 24 h, 0.05 μM DBT + SB202190): 348 ± 198 pg/mL
Interleukin 1 beta secreted (donor F372, 24 h, 0.05 μM DBT, no inhibitor (SB202190 experiment)): 2388 ± 322 pg/mL
Interleukin 1 beta secreted (donor F372, 24 h, 0.1 μM DBT + SB202190): 70 ± 14 pg/mL
Interleukin 1 beta secreted (donor F372, 24 h, 0.1 μM DBT, no inhibitor (SB202190 experiment)): 1985 ± 53 pg/mL
Interleukin 1 beta secreted (donor F385, 24 h, 0.05 μM DBT + SB202190): 65 ± 24 pg/mL
Interleukin 1 beta secreted (donor F385, 24 h, 0.05 μM DBT, no inhibitor (SB202190 experiment)): 1863 ± 83 pg/mL
Interleukin 1 beta secreted (donor F385, 24 h, 0.1 μM DBT, no inhibitor (SB202190 experiment)): 1126 ± 29 pg/mL
